Literature values as cited in patent US20080021074A1, “Pharmaceutical Compositions and Related Methods of Treatment” (QUESTCOR PHARMACEUTICALS, INC., priority 2006, published 2008).
Where a name gives a salt, the structure may show the parent alone.

Legend:
mice = conditions: single administration
monkeys = conditions: single administration
CYP1A2 [1] = conditions: primary human hepatocyte cultures, concentration-dependent
CYP2B6 = conditions: primary human hepatocyte cultures, concentration-dependent
CYP3A4 = conditions: primary human hepatocyte cultures, concentration-dependent
CYP2C19 = CYP2C19 (Homo sapiens, UniProt P33261)
CYP2C19, sequence (P33261 whole entry): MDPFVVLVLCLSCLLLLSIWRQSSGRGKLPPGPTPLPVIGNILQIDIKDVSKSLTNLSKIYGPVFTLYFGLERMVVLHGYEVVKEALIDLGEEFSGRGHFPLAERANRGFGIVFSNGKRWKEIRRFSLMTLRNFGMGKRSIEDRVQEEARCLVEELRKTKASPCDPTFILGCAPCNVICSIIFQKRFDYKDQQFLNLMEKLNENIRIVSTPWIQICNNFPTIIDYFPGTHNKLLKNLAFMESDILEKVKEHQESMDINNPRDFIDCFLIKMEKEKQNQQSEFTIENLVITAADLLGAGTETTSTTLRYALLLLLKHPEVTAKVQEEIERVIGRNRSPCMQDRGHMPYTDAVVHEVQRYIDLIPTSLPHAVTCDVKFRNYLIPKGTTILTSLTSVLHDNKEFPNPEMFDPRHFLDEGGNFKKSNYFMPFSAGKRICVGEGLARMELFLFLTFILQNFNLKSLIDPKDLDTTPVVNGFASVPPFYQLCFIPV

CYP1A2 [2] = molecular target: CYP1A2 (Homo sapiens, UniProt P05177); conditions: in vitro
CYP1A2 (Homo sapiens, UniProt P05177), sequence (P05177 whole entry): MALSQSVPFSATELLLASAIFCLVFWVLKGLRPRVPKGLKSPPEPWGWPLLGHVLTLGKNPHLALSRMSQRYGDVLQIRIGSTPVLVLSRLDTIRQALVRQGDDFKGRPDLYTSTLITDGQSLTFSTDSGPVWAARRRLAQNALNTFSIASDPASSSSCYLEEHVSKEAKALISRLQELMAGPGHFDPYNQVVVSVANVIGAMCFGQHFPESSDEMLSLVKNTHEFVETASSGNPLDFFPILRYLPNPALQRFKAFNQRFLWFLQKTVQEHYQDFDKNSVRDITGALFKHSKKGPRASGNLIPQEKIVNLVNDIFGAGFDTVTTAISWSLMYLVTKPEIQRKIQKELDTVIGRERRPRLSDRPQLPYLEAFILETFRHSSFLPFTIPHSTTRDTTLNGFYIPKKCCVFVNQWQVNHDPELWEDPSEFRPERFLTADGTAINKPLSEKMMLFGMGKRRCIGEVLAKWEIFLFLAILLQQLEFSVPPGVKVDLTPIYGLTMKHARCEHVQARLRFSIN

[3] = tizanidine and baclofen combined
spasticity = conditions: clinical studies

Structure (SMILES): NC(=O)C[S+]([O-])C(c1ccccc1)c1ccccc1 (stereo not drawn) [Modafinil, 2-[(diphenylmethyl)sulfinyl]acetamide]
- locomotor activity (mice): increased locomotor activity
- nocturnal activity (monkeys): increased nocturnal activity
- induction of CYP1A2 (CYP1A2 [1]): slightly induce
- induction of CYP2B6 (CYP2B6): slightly induce
- induction of CYP3A4 (CYP3A4): slightly induce
- inhibition of CYP2C19 (CYP2C19): reversible inhibitors

Structure (SMILES): Clc1ccc2nsnc2c1NC1=NCCN1 [Tizanidine, 5-chloro-4-(2-imidazolin-2-ylamino)-2,1,3-benzothiodiazole hydrochloride]
- metabolizing enzyme (CYP1A2 [2]): metabolized by CYP1A2
- pharmacokinetic interaction [3]: without significant pharmacokinetic interaction
- antispastic effect compared with diazepam and baclofen (spasticity): as effective as other antispastic agents
- tolerability compared with diazepam and baclofen (spasticity; especially incidence of debilitating muscle weakness): more favorable tolerability profile

Structure (SMILES): NCC(CC(=O)O)c1ccc(Cl)cc1 (stereo not drawn) [baclofen, 4-amino-3-(4-chlorophenyl)-butanoic acid]
- pharmacokinetic interaction [3]: without significant pharmacokinetic interaction

Structure (SMILES): NC(=O)CS(=O)(=O)C(c1ccccc1)c1ccccc1 [modafinil sulfone]
- inhibition of CYP2C19 (CYP2C19): reversible inhibitors
